Reference: patent publication US10479780B2, “Aminopyrazole derivatives” (Chugai Seiyaku Kabushiki Kaisha, priority 2015, dated 2019)

Experiments:
Type in all cases: biochemical
[1] = molecular target: T1, human Yes1 enzyme (Homo sapiens, UniProt P07947); test: Yes1 enzyme inhibitory activity (time-resolved fluorometry, biotinylated peptide phosphorylation); conditions: read-out: YES_IC50
T1 construct: made in house
Method in brief: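 Inhibition was expressed against a compound-free control to give IC50, using TR-FRET read-out (Eu-cryptate anti-pTyr antibody, streptavidin-XL665).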

[2] = molecular target: T2, human Lck enzyme (Homo sapiens, UniProt P06239); test: Lck enzyme inhibitory activity (time-resolved fluorometry, biotinylated peptide phosphorylation); conditions: read-out: LCK_IC50
T2 construct: purchased Carna Biosciences, Inc. 08-170
T2 sequence (P06239 whole entry): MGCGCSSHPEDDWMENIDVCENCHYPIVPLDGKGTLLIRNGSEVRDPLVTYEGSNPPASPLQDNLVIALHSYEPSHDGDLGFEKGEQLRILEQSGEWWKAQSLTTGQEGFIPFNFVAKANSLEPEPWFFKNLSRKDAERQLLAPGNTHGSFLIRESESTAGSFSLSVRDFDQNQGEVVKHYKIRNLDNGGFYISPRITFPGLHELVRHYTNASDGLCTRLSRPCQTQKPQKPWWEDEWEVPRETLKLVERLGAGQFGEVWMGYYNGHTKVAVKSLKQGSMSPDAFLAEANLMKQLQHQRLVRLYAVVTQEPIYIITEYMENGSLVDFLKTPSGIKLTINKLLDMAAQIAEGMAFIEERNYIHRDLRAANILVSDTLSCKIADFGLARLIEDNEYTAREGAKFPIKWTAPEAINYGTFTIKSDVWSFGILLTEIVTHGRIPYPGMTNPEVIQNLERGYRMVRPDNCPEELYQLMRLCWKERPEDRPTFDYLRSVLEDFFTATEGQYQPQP
Method in brief: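 Readout pairs a europium cryptate-labelled anti-phosphotyrosine antibody with XL665-streptavidin, measured by time-resolved fluorescence. IC50 derived from percent inhibition against untreated controls.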

[3] = molecular target: T3, human Src enzyme (Homo sapiens, UniProt P12931); test: Src enzyme inhibitory activity (time-resolved fluorometry, biotinylated peptide phosphorylation); conditions: read-out: SRC_IC50
T3 construct: purchased Carna Biosciences, Inc. 08-173
T3 sequence (P12931 whole entry): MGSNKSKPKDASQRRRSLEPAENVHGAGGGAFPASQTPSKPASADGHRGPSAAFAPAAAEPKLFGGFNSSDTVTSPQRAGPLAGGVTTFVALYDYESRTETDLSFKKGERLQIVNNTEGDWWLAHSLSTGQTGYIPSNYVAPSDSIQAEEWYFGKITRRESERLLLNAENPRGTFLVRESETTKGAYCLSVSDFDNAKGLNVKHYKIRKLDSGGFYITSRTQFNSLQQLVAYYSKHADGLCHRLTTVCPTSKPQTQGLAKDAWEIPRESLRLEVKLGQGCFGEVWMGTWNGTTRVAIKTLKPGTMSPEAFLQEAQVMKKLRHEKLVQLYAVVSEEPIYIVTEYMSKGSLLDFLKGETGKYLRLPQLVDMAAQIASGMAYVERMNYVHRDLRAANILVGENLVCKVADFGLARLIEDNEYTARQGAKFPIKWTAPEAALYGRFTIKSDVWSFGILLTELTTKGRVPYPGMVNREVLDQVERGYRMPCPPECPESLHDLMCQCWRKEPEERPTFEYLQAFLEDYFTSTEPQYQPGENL
Method in brief: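 Compounds were tested for blocking tyrosine phosphorylation of a biotinylated peptide substrate by recombinant human Src. Phosphorylated product was quantified by time-resolved fluorometry using europium cryptate and XL665 conjugates, and IC50 was calculated against the compound-free control.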

T1 sequence (P07947 whole entry): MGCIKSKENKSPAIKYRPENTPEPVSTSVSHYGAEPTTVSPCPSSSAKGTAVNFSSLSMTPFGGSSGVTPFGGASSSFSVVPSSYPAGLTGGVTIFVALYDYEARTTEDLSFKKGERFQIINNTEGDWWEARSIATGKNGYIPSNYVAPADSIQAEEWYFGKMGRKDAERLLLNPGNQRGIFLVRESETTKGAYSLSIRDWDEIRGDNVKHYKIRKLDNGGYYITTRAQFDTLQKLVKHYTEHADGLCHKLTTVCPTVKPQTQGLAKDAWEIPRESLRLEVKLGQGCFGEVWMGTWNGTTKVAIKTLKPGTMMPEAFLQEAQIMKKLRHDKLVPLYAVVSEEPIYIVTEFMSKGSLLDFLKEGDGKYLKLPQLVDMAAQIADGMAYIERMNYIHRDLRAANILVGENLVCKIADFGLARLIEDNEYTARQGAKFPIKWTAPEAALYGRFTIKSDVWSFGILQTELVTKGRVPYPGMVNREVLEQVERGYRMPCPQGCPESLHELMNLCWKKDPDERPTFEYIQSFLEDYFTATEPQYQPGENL

| IC50 [1] [nM] | IC50 [2] [nM] | IC50 [3] [nM] | Compound |
| --- | --- | --- | --- |
| 1.5 | 2.2 | 23 | CC(C)N1CCC(c2cc3[nH]c(C(=O)c4cnn(-c5ccc(Oc6ccccc6Cl)cc5)c4N)cc3cc2F)CC1 [Example 5-1-015, [5-amino-1-[4-(2-chlorophenoxy)phenyl]pyrazol-4-yl]-[5-fluoro-6-(1-propan-2-ylpiperidin-4-yl)-1H-indol-2-yl]methanone] |
| 0.72 | 25 | 93 | CS(=O)(=O)Nc1cc2[nH]c(C(=O)c3cnn(-c4ccc(Oc5cccc(F)c5F)cc4Cl)c3N)cc2cc1F [Example 5-1-016, N-[2-[5-amino-1-[2-chloro-4-(2,3-difluorophenoxy)phenyl]pyrazole-4-carbonyl]-5-fluoro-1H-indol-6-yl]methanesulfonamide] |
| 4.5 | 630 | 2400 | Cc1cc(-n2ncc(C(=O)c3cc4cc(F)c(NS(C)(=O)=O)cc4[nH]3)c2N)ccc1Oc1ccccc1F [Example 5-1-017, N-[2-[5-amino-1-[4-(2-fluorophenoxy)-3-methylphenyl]pyrazole-4-carbonyl]-5-fluoro-1H-indol-6-yl]methanesulfonamide] |
| 2.2 | 33 | 110 | CS(=O)(=O)Nc1cc2[nH]c(C(=O)c3cnn(-c4ccc(Oc5ccccc5F)cc4Cl)c3N)cc2cc1F [Example 5-1-018, N-[2-[5-amino-1-[2-chloro-4-(2-fluorophenoxy)phenyl]pyrazole-4-carbonyl]-5-fluoro-1H-indol-6-yl]methanesulfonamide] |
| 2.8 | 54 | 120 | Nc1c(C(=O)c2cc3cc(F)c(NS(=O)(=O)C4CC4)cc3[nH]2)cnn1-c1c(F)cc(Oc2ccccc2F)cc1F [Example 5-1-019, N-[2-[5-amino-1-[2,6-difluoro-4-(2-fluorophenoxy)phenyl]pyrazole-4-carbonyl]-5-fluoro-1H-indol-6-yl] cyclopropanesulfonamide] |
| 5.7 | 51 | 190 | Cc1cc(Oc2ccccc2F)ncc1-n1ncc(C(=O)c2cc3cc(F)c(NS(=O)(=O)NC4CC4)cc3[nH]2)c1N [Example 5-1-020, [5-amino-1-[6-(2-fluorophenoxy)-4-methylpyridin-3-yl]pyrazol-4-yl]-[6-(cyclopropylsulfamoylamino)-5-fluoro-1H-indol-2-yl]methanone] |
| 9.8 | 72 | 310 | Cc1cc(Oc2ccccc2F)ncc1-n1ncc(C(=O)c2cc3cc(F)c(NS(=O)(=O)NC(C)C)cc3[nH]2)c1N [Example 5-1-021, [5-amino-1-[6-(2-fluorophenoxy)-4-methylpyridin-3-yl]pyrazol-4-yl]-[5-fluoro-6-(propan-2-ylsulfamoylamino)-1H-indol-2-yl] methanone] |
| 2 | 10 | 62 | CS(=O)(=O)Nc1cc2[nH]c(C(=O)c3cnn(-c4c(F)cc(Oc5ccccc5F)cc4F)c3N)cc2cc1F [Example 5-1-022, N-[2-[5-amino-1-[2,6-difluoro-4-(2-fluorophenoxy)phenyl]pyrazole-4-carbonyl]-5-fluoro-1H-indol-6-yl]methanesulfonamide] |
| 16 | 64 | 240 | CS(=O)(=O)Nc1cc2[nH]c(C(=O)c3cnn(-c4c(Cl)cc(Oc5ccccc5F)cc4Cl)c3N)cc2cc1F [Example 5-1-023, N-[2-[5-amino-1-[2,6-dichloro-4-(2-fluorophenoxy)phenyl]pyrazole-4-carbonyl]-5-fluoro-1H-indol-6-yl]methanesulfonamide] |
| 26 | 83 | 340 | CS(=O)(=O)Nc1cc2[nH]c(C(=O)c3cnn(-c4c(Cl)cc(Oc5cccc(F)c5F)cc4Cl)c3N)cc2cc1F [Example 5-1-024, N-[2-[5-amino-1-[2,6-dichloro-4-(2,3-difluorophenoxy)phenyl]pyrazole-4-carbonyl]-5-fluoro-1H-indol-6-yl]methanesulfonamide] |
| 20 | 270 | 730 | Nc1c(C(=O)c2cc3cc(F)c(NS(=O)(=O)C4CC4)cc3[nH]2)cnn1-c1c(Cl)cc(Oc2ccccc2F)cc1Cl [Example 5-1-025, N-[2-[5-amino-1-[2,6-dichloro-4-(2-fluorophenoxy)phenyl]pyrazole-4-carbonyl]-5-fluoro-1H-indol-6-yl]cyclopropanesulfonamide] |
| 64 | 390 | 660 | Nc1c(C(=O)c2cc3cc(F)c(NS(=O)(=O)C4CC4)cc3[nH]2)cnn1-c1c(Cl)cc(Oc2cccc(F)c2F)cc1Cl [Example 5-1-026, N-[2-[5-amino-1-[2,6-dichloro-4-(2,3-difluorophenoxy)phenyl]pyrazole-4-carbonyl]-5-fluoro-1H-indol-6-yl] cyclopropanesulfonamide] |
| 0.84 | 20 | 65 | Nc1c(C(=O)c2cc3cc(F)c(NS(=O)(=O)CCCF)cc3[nH]2)cnn1-c1c(F)cc(Oc2ccccc2F)cc1F [Example 5-1-027, N-[2-[5-amino-1-[2,6-difluoro-4-(2-fluorophenoxy)phenyl]pyrazole-4-carbonyl]-5-fluoro-1H-indol-6-yl]-3-fluoropropane-1-sulfonamide] |
| 13 | 200 | 350 | Nc1c(C(=O)c2cc3cc(F)c(NS(=O)(=O)CCCF)cc3[nH]2)cnn1-c1c(Cl)cc(Oc2cccc(F)c2F)cc1Cl [Example 5-1-028, N-[2-[5-amino-1-[2,6-dichloro-4-(2,3-difluorophenoxy)phenyl]pyrazole-4-carbonyl]-5-fluoro-1H-indol-6-yl]-3-fluoropropane-1-sulfanamide] |
| 0.73 | 13 | 17 | Cc1cc(Oc2ccccc2F)ccc1-n1ncc(C(=O)c2cc3cc(F)c(NC(=O)C(F)(F)F)cc3[nH]2)c1N [Example 5-1-029, N-[2-[5-amino-1-[4-(2-fluorophenoxy)-2-methylphenyl]pyrazole-4-carbonyl]-5-fluoro-1H-indol-6-yl]-2,2,2-trifluoroacetamide] |
| 2.4 | 8.7 | 76 | CS(=O)(=O)Nc1cc2[nH]c(C(=O)c3cnn(-c4c(F)cc(Oc5cccc(F)c5F)cc4F)c3N)cc2cc1F [Example 5-1-030, N-[2-[5-amino-1-[4-(2,3-difluorophenoxy)-2,6-difluorophenyl]pyrazole-4-carbonyl]-5-fluoro-1H-indol-6-yl]methanesulfonamide] |
| 4.1 | 34 | 220 | Nc1c(C(=O)c2cc3cc(F)c(NS(=O)(=O)C4CC4)cc3[nH]2)cnn1-c1c(F)cc(Oc2cccc(F)c2F)cc1F [Example 5-1-031, N-[2-[5-amino-1-[4-(2,3-difluorophenoxy)-2,6-difluorophenyl]pyrazole-4-carbonyl]-5-fluoro-1H-indol-6-yl]cyclopropanesulfonamide] |
| 11 | 130 | 380 | Cc1cc(Oc2ccccc2F)cc(C)c1-n1ncc(C(=O)c2cc3cc(F)c(NS(C)(=O)=O)cc3[nH]2)c1N [Example 5-1-032, N-[2-[5-amino-1-[4-(2-fluorophenoxy)-2,6-dimethylphenyl]pyrazole-4-carbonyl]-5-fluoro-1H-indol-6-yl]methanesulfonamide] |
| 8.4 | 230 | 400 | Nc1c(C(=O)c2cc3cc(F)c(NS(=O)(=O)CCCF)cc3[nH]2)cnn1-c1c(Cl)cc(Oc2ccccc2F)cc1Cl [Example 5-1-033, N-[2-[5-amino-1-[2,6-dichloro-4-(2-fluorophenoxy)phenyl]pyrazole-4-carbonyl]-5-fluoro-1H-indol-6-yl]-3-fluoropropane-1-sulfonamide] |
| 3.5 | 62 | 180 | Nc1c(C(=O)c2cc3cc(F)c(NS(=O)(=O)CCCF)cc3[nH]2)cnn1-c1c(F)cc(Oc2cccc(F)c2F)cc1F [Example 5-1-034, N-[2-[5-amino-1-[4-(2,3-difluorophenoxy)-2,6-difluorophenyl]pyrazole-4-carbonyl]-5-fluoro-1H-indol-6-yl]-3-fluoropropane-1-sulfonamide] |
| 0.68 | 35 | 85 | Nc1c(C(=O)c2cc3cc(F)c(NS(=O)(=O)CCCF)cc3[nH]2)cnn1-c1ccc(Oc2ncccc2F)cc1F [Example 5-1-035, N-[2-[5-amino-1-[2-fluoro-4-(3-fluoropyridin-2-yl)oxyphenyl]pyrazole-4-carbonyl]-5-fluoro-1H-indol-6-yl]-3-fluoropropane-1-sulfonamide] |
| 1.5 | 65 | 140 | Nc1c(C(=O)c2cc3cc(F)c(NS(=O)(=O)CCCF)cc3[nH]2)cnn1-c1ccc(Oc2ncccc2Cl)cc1F [Example 5-1-036, N-[2-[5-amino-1-[4-(3-chloropyridin-2-yl)oxy-2-fluorophenyl]pyrazole-4-carbonyl]-5-fluoro-1H-indol-6-yl]-3-fluoropropane-1-sulfonamide] |
| 0.91 | 17 | 45 | Nc1c(C(=O)c2cc3cc(F)c(NS(=O)(=O)CCCF)cc3[nH]2)cnn1-c1ccc(Oc2ncccc2Cl)cc1Cl [Example 5-1-037, N-[2-[5-amino-1-[2-chloro-4-(3-chloropyridin-2-yl)oxyphenyl]pyrazole-4-carbonyl]-5-fluoro-1H-indol-6-yl]-3-fluoropropane-1-sulfonamide] |
